Usually IC50 stands for the midpoint of a concentration-inhibition curve.

The values that follow come from patent US20260356851A1, “TRICYCLIC COMPOUNDS AND USES THEREOF” (HUTCHMED LIMITED, priority 2023, published 2026).

What all share (type): cell-based
Experiment [1] deals with T1, pERK1/2 (Thr202/Tyr204), NCI-1H358 (KRAS G12C) (Homo sapiens, UniProt P01116, G12C).
T1 construct: pERK1/2 HTRF read-out
As to the kind of experiment: Assay of intracellular pERK1/2 (Thr202/Tyr204) phosphorylation in NCI-H358 cells (KRAS G12C). The conditions noted are these: pERK1/2, 2 days, read-out: NCI-H358 (KRAS G12C) IC50. The method, boiled down: (§1)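 HTRF detection of Thr202/Tyr204-phosphorylated ERK1/2 (665/615 nm ratio) in lysates from cells treated 2 days with serially 3-fold diluted compound.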

In experiment [2] the target is T2, pERK1/2 (Thr202/Tyr204), PANC-1 (KRAS G121D) (Homo sapiens, UniProt P01116, G12D).
T2 construct: pERK1/2 HTRF read-out
As to the kind of experiment: Assay of intracellular pERK1/2 (Thr202/Tyr204) phosphorylation in PANC-1 cells (KRAS G12D). The conditions noted are these: pERK1/2, 2 days, read-out: PANC-1 (KRAS G12D) IC50. The method, boiled down: as §1

In experiment [3] the target is T3, pERK1/2 (Thr202/Tyr204), NCI-1H441 (KRAS G12V) (Homo sapiens, UniProt P01116, G12V).
T3 construct: pERK1/2 HTRF read-out
In words: Assay of intracellular pERK1/2 (Thr202/Tyr204) phosphorylation in NCI-H441 cells (KRAS G12V). The conditions noted are these: pERK1/2, 2 days, read-out: NCI-H441 (KRAS G12V) IC50. The method, boiled down: as §1

T1 sequence (P01116 1-188 isoform P01116-2 G12C): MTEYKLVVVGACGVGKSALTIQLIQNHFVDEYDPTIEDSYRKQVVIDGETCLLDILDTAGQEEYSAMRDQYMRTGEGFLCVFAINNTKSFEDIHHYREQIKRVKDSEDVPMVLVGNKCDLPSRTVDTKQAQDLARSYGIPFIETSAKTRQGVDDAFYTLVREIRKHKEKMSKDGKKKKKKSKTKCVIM
T3 sequence (P01116 1-188 isoform P01116-2 G12V): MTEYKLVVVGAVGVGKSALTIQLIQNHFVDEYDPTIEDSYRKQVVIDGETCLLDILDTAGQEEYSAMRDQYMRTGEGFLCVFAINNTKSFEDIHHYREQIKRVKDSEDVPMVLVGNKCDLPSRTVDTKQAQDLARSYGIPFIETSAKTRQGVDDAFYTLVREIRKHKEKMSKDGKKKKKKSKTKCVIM
T2 sequence (P01116 1-188 isoform P01116-2 G12D): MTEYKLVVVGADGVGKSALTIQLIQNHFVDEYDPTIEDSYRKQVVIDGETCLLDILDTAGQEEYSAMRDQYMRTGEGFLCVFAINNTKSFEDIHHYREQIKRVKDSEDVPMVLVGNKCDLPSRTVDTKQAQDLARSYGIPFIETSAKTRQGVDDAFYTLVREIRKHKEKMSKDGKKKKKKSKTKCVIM

Consider `Cc1cc2[nH]ncc2c(-c2nc3c4c(nc(OC[C@@]56CCCN5C[C@H](F)C6)nc4c2F)N(C(C)c2cccnc2N)[C@@H](C)CO3)c1C1CC1` (stereo partly drawn) [Compound 317], for which the 50% inhibitory concentration (IC50) came to 0.4 nM in experiment [1], 0.3 nM in experiment [2] and 0.8 nM in experiment [3].
For `Cc1ccc2[nH]ncc2c1-c1nc2c3c(nc(OC[C@@]45CCCN4C[C@H](F)C5)nc3c1F)N(C(C)c1cccnc1N)[C@@H](C)CO2` (stereo partly drawn) [Compound 318], in that order: 1 nM, 37 nM and 7 nM.
The matching figures for `Cc1ccc2[nH]nc(C)c2c1-c1nc2c3c(nc(OC[C@@]45CCCN4C[C@H](F)C5)nc3c1F)N(C(C)c1cccnc1N)[C@@H](C)CO2` (stereo partly drawn) [Compound 319]: 0.9 nM, 10 nM and 1 nM.
For `CC(c1cccnc1N)N1c2nc(OC[C@@]34CCCN3C[C@H](F)C4)nc3c(F)c(-c4ccc(F)c5sc(N)nc45)nc(c23)OC[C@@H]1C` (stereo partly drawn) [Compound 320], in that order: 0.9 nM, 28 nM and 4 nM.
As to `CC(c1cccnc1N)N1c2nc(OC[C@@]34CCCN3C[C@H](F)C4)nc3c(F)c(-c4c(Cl)ccc5[nH]ncc45)nc(c23)OC[C@@H]1C` (stereo partly drawn) [Compound 321], the half-maximal inhibitory concentration (IC50) in experiment [1] worked out at 1 nM; in experiment [2] it was 36 nM; in experiment [3], 7 nM.
Consider `CC(c1cccnc1N)N1c2nc(OC[C@@]34CCCN3C[C@H](F)C4)nc3c(F)c(-c4cc(O)cc(Cl)c4C#N)nc(c23)OC[C@@H]1C` (stereo partly drawn) [Compound 322], for which the IC50 in experiment [1] is 21 nM; in experiment [2], more than 100 nM; in experiment [3] it was 97 nM.
Turning to `CC(c1cccnc1N)N1c2nc(OC[C@@]34CCCN3C[C@H](F)C4)nc3c(F)c(-c4c(C(F)(F)F)cnc5[nH]ccc45)nc(c23)OC[C@@H]1C` (stereo partly drawn) [Compound 323], the IC50 worked out at 0.6 nM in experiment [1], 10 nM in experiment [2] and 2 nM in experiment [3].
For `Cc1c(-c2nc3c4c(nc(OC[C@@]56CCCN5C[C@H](F)C6)nc4c2F)N(C(C)c2cccnc2N)[C@@H](C)CO3)ccc2cn[nH]c12` (stereo partly drawn) [Compound 324], in that order: 28 nM, more than 100 nM and more than 100 nM.
The matching figures for `CC(c1cccnc1N)N1c2nc(OC[C@@]34CCCN3C[C@H](F)C4)nc3c(F)c(-c4cc5[nH]ncc5cc4C(F)(F)F)nc(c23)OC[C@@H]1C` (stereo partly drawn) [Compound 325]: 28 nM, more than 100 nM and 44 nM.
The matching figures for `Cc1cc(N)nc(-c2nc3c4c(nc(OC[C@@]56CCCN5C[C@H](F)C6)nc4c2F)N(C(C)c2cccnc2N)[C@@H](C)CO3)c1C(F)(F)F` (stereo partly drawn) [Compound 326, (*)6-((9S)-10-(1-(2-aminopyridin-3-yl)ethyl)-4-fluoro-2-(((2R,7aS)-2-fluorotetrahydro-1H-pyrrolizin-7a(5H)-yl)methoxy)-9-methyl-9,10-dihydro-8H-7-oxa-1,3,6,10-tetraazacyclohepta[de]naphthalen-5-yl)-4-methyl-5-(trifluoromethyl)pyridin-2-amine]: 1 nM, 3 nM and 3 nM.
Consider `CC(c1cccnc1N)N1c2nc(OC[C@@]34CCCN3C[C@H](F)C4)nc3c(F)c(-c4ccc(F)c5sc(N)c(C(N)=O)c45)nc(c23)OC[C@@H]1C` (stereo partly drawn) [Compound 327], for which the IC50 in experiment [1], in experiment [2] and in experiment [3] was more than 100 nM in each case.
With `CC(c1cccnc1N)N1c2nc(OC[C@@]34CCCN3C[C@H](F)C4)nc3c(F)c(-c4ccc(F)c5sc(N)c(C#N)c45)nc(c23)OC[C@@H]1C` (stereo partly drawn) [Compound 328], the figures for the IC50 in experiment [1], in experiment [2] and in experiment [3] were 0.5 nM, 0.8 nM and 0.8 nM, respectively.
Regarding `Cc1cc(N)nc(-c2nc3c4c(nc(OC[C@@]56CCCN5C[C@H](F)C6)nc4c2F)N(C(C)c2cccnc2N)[C@@H](C)CO3)c1` (stereo partly drawn) [Compound 329], the half-maximal inhibitory concentration (IC50) in experiment [1], in experiment [2] and in experiment [3] was more than 100 nM in each case.
Consider `CC(c1cccnc1N)N1c2nc(OC[C@@]34CCCN3C[C@H](F)C4)nc3c(F)c(N4CC(O)Cc5ccccc54)nc(c23)OC[C@@H]1C` (stereo partly drawn) [Compound 331], for which the half-inhibitory concentration (IC50) in experiment [1] is 38 nM; in experiment [2] it was more than 100 nM; in experiment [3] it was more than 100 nM.
Turning to `CC(c1cccnc1N)N1c2nc(OC[C@@]34CCCN3C[C@H](F)C4)nc3c(F)c(-c4c(C5CC5)c(Cl)cc5[nH]ncc45)nc(c23)OC[C@@H]1C` (stereo partly drawn) [Compound 332], the IC50 in experiment [1] was found to be 0.4 nM; in experiment [2] it was 0.3 nM; in experiment [3] it was 0.9 nM.
The matching figures for `CC(c1cccnc1N)N1c2nc(OC[C@@]34CCCN3C[C@H](F)C4)nc3c(F)c(-c4c(F)cc(F)c5sc(N)nc45)nc(c23)OC[C@@H]1C` (stereo partly drawn) [Compound 333]: 1 nM, 6 nM and 1 nM.
For `Cc1cc2[nH]ncc2c(-c2nc3c4c(nc(OC[C@@]56CCCN5C[C@H](F)C6)nc4c2F)N(C(C)c2cc(Cl)cnc2N)[C@@H](C)CO3)c1C(F)(F)F` (stereo partly drawn) [Compound 334, (*)5-Chloro-3-(1-((9S)-4-fluoro-2-(((2R,7aS)-2-fluorotetrahydro-1H-pyrrolizin-7a(5H)-yl)methoxy)-9-methyl-5-(6-methyl-5-(trifluoromethyl)-1H-indazol-4-yl)-8,9-dihydro-1OH-7-oxa-1,3,6,10-tetraazacyclohepta[de]naphthalen-10-yl)ethyl)pyridin-2-amine], in that order: 0.3 nM, 0.6 nM and 0.5 nM.
Take `CC(c1cccnc1N)N1c2nc(OC[C@@]34CCCN3C[C@H](F)C4)nc3c(F)c(-c4cccc5nc(N)nn45)nc(c23)OC[C@@H]1C` (stereo partly drawn) [Compound 335]: the concentration for half-maximal inhibition (IC50) in experiment [1], in experiment [2] and in experiment [3] was more than 100 nM each time.
With `CC(c1cccnc1N)N1c2nc(OC[C@@]34CCCN3C[C@H](F)C4)nc3c(F)c(-n4nc(N)c5ccccc54)nc(c23)OC[C@@H]1C` (stereo partly drawn) [Compound 336, (*)1-((9S)-10-(1-(2-aminopyridin-3-yl)ethyl)-4-fluoro-2-(((2R,7aS)-2-fluorotetrahydro-1H-pyrrolizin-7a(5H)-yl)methoxy)-9-methyl-9,10-dihydro-8H-7-oxa-1,3,6,10-tetraazacyclohepta[de]naphthalen-5-yl)-1H-indazol-3-amine], the IC50 in experiment [1], in experiment [2] and in experiment [3] was more than 100 nM each time.
On to `CC(c1cccnc1N)N1c2nc(OC[C@@]34CCCN3C[C@H](F)C4)nc3c(F)c(-c4c(C(F)(F)F)ccc5ncccc45)nc(c23)OC[C@@H]1C` (stereo partly drawn) [Compound 337], for which the half-maximal inhibitory concentration (IC50) in experiment [1], in experiment [2] and in experiment [3] was more than 100 nM throughout.
In the case of `Cc1cc(F)c2sc(N)nc2c1-c1nc2c3c(nc(OC[C@@]45CCCN4C[C@H](F)C5)nc3c1F)N(C(C)c1cccnc1N)[C@@H](C)CO2` (stereo partly drawn) [Compound 340], the IC50 in experiment [1] was 2 nM; in experiment [2], 39 nM; in experiment [3], 4 nM.
For `Cc1cc2[nH]ncc2c(-c2nc3c4c(nc(OC[C@@]56CCCN5C[C@H](F)C6)nc4c2F)N([C@H](C)c2cc(F)cnc2N)[C@@H](C)CO3)c1C(F)(F)F` [Compound 342], in that order: 0.2 nM, 0.3 nM and 0.4 nM.
As to `CC(c1cccnc1N)N1c2nc(OC[C@@]34CCCN3C[C@H](F)C4)nc3c(F)c(-c4c5c(cc6[nH]ncc46)CCC5)nc(c23)OC[C@@H]1C` (stereo partly drawn) [Compound 343], the IC50 worked out at 0.2 nM in experiment [1], 2 nM in experiment [2] and 0.6 nM in experiment [3].
For `CC(c1cccnc1N)N1c2nc(OC[C@@]34CCCN3C[C@H](F)C4)nc3c(F)c(-c4c5ccccc5cc5[nH]ncc45)nc(c23)OC[C@@H]1C` (stereo partly drawn) [Compound 348], in that order: 0.2 nM, 0.5 nM and 0.5 nM.
For `CC(c1cccnc1N)N1c2nc(OC[C@@]34CCCN3C[C@H](F)C4)nc3c(F)c(-c4cc(=O)[nH]c5ccccc45)nc(c23)OC[C@@H]1C` (stereo partly drawn) [Compound 360], in that order: more than 100 nM, more than 100 nM and more than 100 nM.
The matching figures for `CC(c1cccnc1N)N1c2nc(OC[C@@]34CCCN3C[C@H](F)C4)nc3c(F)c(-c4c5cn[nH]c5cc5cccc(F)c45)nc(c23)OC[C@@H]1C` (stereo partly drawn) [Compound 362]: 0.2 nM, 0.4 nM and 0.3 nM.
Turning to `Cc1c(C(F)(F)F)c(-c2nc3c4c(nc(OC[C@@]56CCCN5C[C@H](F)C6)nc4c2F)N(C(C)c2cccnc2N)[C@@H](C)CO3)c2cn[nH]c2c1F` (stereo partly drawn) [Compound 363], the figures for the IC50 in experiment [1], in experiment [2] and in experiment [3] were 0.2 nM, 0.3 nM and 0.3 nM, respectively.
Consider `Cc1cc2[nH]ncc2c(-c2nc3c4c(nc(OC[C@@]56CCCN5C[C@H](F)C6)nc4c2F)N([C@@H](C)c2cc(F)cnc2N)[C@@H](C)CO3)c1C(F)(F)F` [Compound 364], for which the half-maximal inhibitory concentration (IC50) in experiment [1], in experiment [2] and in experiment [3] was more than 100 nM in each case.
For the molecule `Cc1c(F)c(N)cc(-c2nc3c4c(nc(OC[C@@]56CCCN5C[C@H](F)C6)nc4c2F)N([C@H](C)c2cc(F)cnc2N)[C@@H](C)CO3)c1C(F)(F)F` [Compound 365], the half-maximal inhibitory concentration (IC50) in experiment [1] stood at 0.2 nM; in experiment [2] it was 1 nM; in experiment [3] it was 1 nM.
